Earlier results, collected in patent US20110178167A1, “METHOD FOR INHIBITING ACTIVITY AND/OR EXPRESSION OF MATRIX METALLOPROTEINASE, INHIBITING PHOSPHORYLATION OF MITOGEN-ACTIVATED PROTEIN KINASE, AND/OR PROMOTING EXPRESSION OF COLLAGEN USING TERMINALIA CATAPPA LEAF EXTRACT” (priority 2010, published 2011).

Tested on: matrix metalloproteinase-1
Conditions: related art

| Compound | expression of matrix metalloproteinase-1 |
| --- | --- |
| C[C@@H]1CC[C@]2(C(=O)O[C@@H]3O[C@H](CO)[C@@H](O)[C@H](O)[C@H]3O)CC[C@]3(C)C(=CC[C@@H]4[C@@]5(C)CC[C@H](O[C@@H]6OC[C@H](O)[C@H](O)[C@H]6O)C(C)(C)[C@@H]5CC[C@]43C)[C@@H]2[C@]1(C)O [ziyuglycoside-I] | inhibited |
| O=c1cc(-c2ccc(O)c(-c3c(O)c(O)c(O)c4c(=O)cc(-c5ccc(O)cc5)oc34)c2)oc2cc(O)cc(O)c12 [sumaflavone] | inhibited |
